Test results as given in PMC13244789, “Cutibacterium Adaptation to Life on Humans Provides a Potential C acnes Infection Biomarker” (The Journal of investigative dermatology, 2025).

Biological target: T1, RoxP_1 (8His-TEV-RoxP_1, RoxP_1-tagless) (Cutibacterium acnes, UniProt Q6A6F6)
T1 construct: gene PPA1939; mature secreted protein; E. coli host, PelB signal peptide
Test: native gel shift (Coomassie, TCE tryptophan protection)
Assay type: binding
Conditions: HSB pH 7.4; weaker than hemin

T1 sequence (Q6A6F6 entry or part of it): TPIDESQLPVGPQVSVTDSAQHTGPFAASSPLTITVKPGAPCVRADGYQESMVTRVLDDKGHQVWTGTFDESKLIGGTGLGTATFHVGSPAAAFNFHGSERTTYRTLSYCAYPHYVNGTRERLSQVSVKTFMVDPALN

C=CC1=C(C)c2cc3[nH]c(cc4nc(cc5[nH]c(cc1n2)c(C)c5CCC(=O)O)C(CCC(=O)O)=C4C)c(C)c3C=C [protoporphyrin IX]
native gel shift (Coomassie, TCE tryptophan protection): porphyrins revealed weaker binding to PPIX but no detectable binding to coproporphyrin III
